# Experiments:
# [1] = Percentage unbound in rat plasma; assay type: ADME, cell-free
# Cathepsin K = target: T1, Cathepsin K (Homo sapiens, UniProt P43235); experiment: Inhibition of human recombinant cathepsin-k using Z-Phe-Arg-AMC as substrate preincubated for 15 mins measured after 1 hr by QFRET assay
# T1 sequence (P43235 whole entry): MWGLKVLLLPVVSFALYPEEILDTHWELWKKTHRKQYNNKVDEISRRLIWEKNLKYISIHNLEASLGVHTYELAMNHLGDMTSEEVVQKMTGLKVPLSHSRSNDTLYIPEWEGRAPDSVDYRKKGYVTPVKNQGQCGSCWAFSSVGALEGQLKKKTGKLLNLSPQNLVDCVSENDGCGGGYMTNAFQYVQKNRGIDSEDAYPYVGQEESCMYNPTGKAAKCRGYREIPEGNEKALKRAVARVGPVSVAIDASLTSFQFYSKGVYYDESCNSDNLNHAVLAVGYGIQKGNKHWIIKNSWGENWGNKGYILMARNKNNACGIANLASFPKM
# in vitro [2] = conditions: rat, hepatocytes
# [3] = Metabolic stability of the compound in rat liver microsomes assessed as compound turnover after 120 mins
# in vivo = conditions: Alderley Park Han Wistar, rat, plasma, iv, 2 mg/kg
# physchem = conditions: buffer, pH 7.4
# [4] = Metabolic stability of the compound in human liver microsomes assessed as compound turnover after 120 mins
# Cathepsin B = Cathepsin B (Homo sapiens, UniProt P07858); experiment: Inhibition of human recombinant cathepsin-B using Z-Arg-Arg-AMC as substrate preincubated for 15 mins measured after 1 hr by QFRET assay
# Procathepsin L = Procathepsin L (Homo sapiens, UniProt P07711); experiment: Inhibition of human recombinant cathepsin-L using Z-Phe-Arg-AMC as substrate preincubated for 15 mins measured after 1 hr by QFRET assay
# [5] = Volume of distribution at steady state in Alderley Park Han Wistar rat at 2 mg/kg, iv and 2 mg/kg, po; assay type: ADME, organism-based; conditions: in vivo, read-out: Vdss
# [6] = Percentage unbound in human plasma; assay type: ADME, cell-free
# [7] = Oral bioavailability in Alderley Park Han Wistar rat at 2 mg/kg; assay type: ADME, organism-based; conditions: in vivo
# [8] = Aqueous solubility of the compound in at pH 7.4; conditions: buffer
# Cathepsin S = Cathepsin S (Homo sapiens, UniProt P25774); experiment: Inhibition of human recombinant cathepsin-S using Z-Val-Val-Arg-AMC as substrate preincubated for 15 mins measured after 1 hr by QFRET assay
# in vitro [9] = conditions: human, hepatocytes
# Homo sapiens = species: Homo sapiens; experiment: Selectivity ratio of IC50 for human recombinant cathepsin-K to IC50 for human recombinant cathepsin-B
# [10] = Inhibition of osteoclastogenesis in human bone marrow-derived stem cells assessed as reduction of pit formation by measuring TRACP5b activity after 7 days by bone TRAP assay; assay type: functional; conditions: 168 h
# Cytochrome P450 3A4 = Cytochrome P450 3A4 (Homo sapiens, UniProt P08684); experiment: Inhibition of CYP3A4; assay type: ADME
# Chain of Cytochrome P450 3A4 (P08684 whole entry): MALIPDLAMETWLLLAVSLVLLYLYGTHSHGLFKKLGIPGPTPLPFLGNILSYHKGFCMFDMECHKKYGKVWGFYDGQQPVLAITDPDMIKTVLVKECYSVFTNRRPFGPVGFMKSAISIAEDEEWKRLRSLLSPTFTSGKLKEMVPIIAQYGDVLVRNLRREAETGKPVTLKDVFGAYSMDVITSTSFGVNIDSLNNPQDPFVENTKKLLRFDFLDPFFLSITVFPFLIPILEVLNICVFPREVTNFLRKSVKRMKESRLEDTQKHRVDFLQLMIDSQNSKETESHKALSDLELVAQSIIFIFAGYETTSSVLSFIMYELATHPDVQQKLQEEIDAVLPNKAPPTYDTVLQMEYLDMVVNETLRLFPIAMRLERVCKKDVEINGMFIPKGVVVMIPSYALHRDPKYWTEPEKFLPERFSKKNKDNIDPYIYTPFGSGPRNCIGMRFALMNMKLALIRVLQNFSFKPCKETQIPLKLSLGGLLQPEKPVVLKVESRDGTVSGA
# Chain of Procathepsin L (P07711 whole entry): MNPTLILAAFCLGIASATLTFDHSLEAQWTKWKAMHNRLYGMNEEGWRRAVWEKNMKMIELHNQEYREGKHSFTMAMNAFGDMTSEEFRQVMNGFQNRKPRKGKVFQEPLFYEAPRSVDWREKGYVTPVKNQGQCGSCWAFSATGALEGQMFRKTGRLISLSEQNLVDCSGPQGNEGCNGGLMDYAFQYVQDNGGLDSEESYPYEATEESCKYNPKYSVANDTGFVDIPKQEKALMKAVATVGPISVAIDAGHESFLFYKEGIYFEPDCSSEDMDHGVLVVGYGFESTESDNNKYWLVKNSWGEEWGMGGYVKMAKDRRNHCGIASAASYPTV
# Chain of Cathepsin S (P25774 whole entry): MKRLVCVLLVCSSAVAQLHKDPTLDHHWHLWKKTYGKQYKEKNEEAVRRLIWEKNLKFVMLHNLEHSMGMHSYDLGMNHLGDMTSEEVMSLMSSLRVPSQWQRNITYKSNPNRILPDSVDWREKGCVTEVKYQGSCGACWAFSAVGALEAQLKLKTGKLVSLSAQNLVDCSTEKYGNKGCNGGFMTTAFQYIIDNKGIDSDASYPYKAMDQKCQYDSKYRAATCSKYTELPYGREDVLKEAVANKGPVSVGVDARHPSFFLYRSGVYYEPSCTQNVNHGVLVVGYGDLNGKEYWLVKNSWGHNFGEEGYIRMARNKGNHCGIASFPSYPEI
fraction unbound [1],IC50 (Cathepsin K) [nM],hepatocyte CLint (in vitro [2]) [µL/min/1e6 cells],microsomal CLint at 2 h [3] [µL/min/mg],clearance (in vivo) [mL/min/kg],logD (physchem),microsomal CLint at 2 h [4] [µL/min/mg],IC50 (Cathepsin B) [nM],IC50 (Procathepsin L) [nM],Vd [5] [L/kg],fraction unbound [6],bioavailability [7] [%],solubility [8] [µM],IC50 (Cathepsin S) [nM],hepatocyte CLint (in vitro [9]) [µL/min/1e6 cells],Ratio IC50 (Homo sapiens),INH (Cytochrome P450 3A4) [µM],SMILES,IC50 [10] [nM]
0.25,14,42,48,> 73,1.7,< 2,1440,> 10000,1.1,0.46,3.5,> 2000,,,,,COc1ccc(N2CCN(C(=O)[C@@H]3CCCC[C@H]3C(=O)NC3(C#N)CC3)CC2)cc1,
,18,,< 2.2,22,,< 2,2400,> 10000,,> 0.5,16,2500,2150,,,,CS(=O)(=O)c1ccc(N2CCN(C(=O)[C@@H]3CCCC[C@H]3C(=O)NC3(C#N)CC3)CC2)cc1,
,6,,> 347,,,16,462,> 10000,,,,,1220,,,,C[C@@H]1CN(c2ccccc2)CCN1C(=O)[C@@H]1CCCC[C@H]1C(=O)NCC#N,
,9,,83,,,8.8,645,> 10000,,,,,1150,,,,C[C@@H]1CN(c2ccc3c(c2)OCO3)CCN1C(=O)[C@@H]1CCCC[C@H]1C(=O)NC1(C#N)CC1,
,59,,< 2,,,< 2,3430,> 10000,,,,,1510,,,,C[C@H]1CN(c2ccc(S(C)(=O)=O)cc2)CCN1C(=O)[C@@H]1CCCC[C@H]1C(=O)NC1(C#N)CC1,
,23,,31,,1.9,< 2.9,315,> 10000,,0.39,,> 3700,1680,,,,N#CCNC(=O)[C@@H]1CCCC[C@H]1C(=O)N1CCN(c2ccc(F)cc2)CC1,
0.28,15,36,107,19,,6.9,1440,> 10000,1.1,> 0.28,0.2,,2260,,,,N#CC1(NC(=O)[C@@H]2CCCC[C@H]2C(=O)N2CCN(c3ccccc3)CC2)CC1,
,11,,,,,,572,> 10000,,,,,,,,,Cc1ccc(N2CCN(C(=O)[C@@H]3CCCC[C@H]3C(=O)NCC#N)CC2)cc1,
0.14,16,9.4,,29,2.7,9.3,603,> 10000,2.1,0.2,21,600,807,30,,,Cc1noc2cc(N3CCN(C(=O)[C@@H]4CCCC[C@H]4C(=O)NC4(C#N)CC4)[C@H](C)C3)ccc12,
0.41,5,< 2,13,15,2.3,4.2,1690,> 10000,0.7,0.24,55,> 1700,1100,,,,COc1ccc(N2CCN(C(=O)[C@@H]3CCCC[C@H]3C(=O)NC3(C#N)CC3)[C@H](C)C2)nc1OC,
,6,,6.8,,,2.2,1270,> 10000,,,,,1090,,211,,COc1ccc(N2CCN(C(=O)[C@@H]3CCCC[C@H]3C(=O)NCC#N)CC2)cc1OC,
,211,,< 2,,,< 2,24900,> 10000,,,,,> 11800,,,,C[C@@H]1CN(c2ccc(S(C)(=O)=O)cc2)C[C@H](C)N1C(=O)[C@@H]1CCCC[C@H]1C(=O)NC1(C#N)CC1,
0.3,8,4.6,15,19,2.7,8.8,766,> 10000,2.5,0.28,87,> 1100,1250,4.7,,,Cc1nn(C)c2cc(N3CCN(C(=O)[C@@H]4CCCC[C@H]4C(=O)NC4(C#N)CC4)[C@H](C)C3)ccc12,
0.27,9,,,,2.8,,971,> 10000,2.5,0.25,64,> 1400,1230,,,,Cc1nn(C)c2ccc(N3CCN(C(=O)[C@@H]4CCCC[C@H]4C(=O)NC4(C#N)CC4)[C@H](C)C3)cc12,
,312,,4.3,,,< 2,40000,> 10000,,,,,> 7430,,,,CC1CN(c2ccc(S(C)(=O)=O)cc2)C(C)CN1C(=O)[C@@H]1CCCC[C@H]1C(=O)NC1(C#N)CC1 (stereo partly drawn),
,12,,< 2,,,9.4,977,> 10000,,,,,549,,,,C[C@@H]1CN(c2ccc(S(C)(=O)=O)cc2)CCN1C(=O)[C@@H]1CCCC[C@H]1C(=O)NC1(C#N)CC1,
,,,,,,,,> 10000,,> 0.5,,,,,,,N#CCNC(=O)[C@@H]1CCCC[C@H]1C(=O)N1CCN(c2ccccc2)CC1,
,8,,149,,,5.6,,> 10000,,,,,,,,,COc1cccc(N2CCN(C(=O)[C@@H]3CCCC[C@H]3C(=O)NCC#N)CC2)c1,
,25,,,,1.8,,,> 10000,,0.53,,,2600,,,,N#CCNC(=O)[C@@H]1CCCC[C@H]1C(=O)N1CCN(c2ccc(C#N)cc2)CC1,
,,,,,,,,,,,,,,,,,CC(C)(F)C[C@H](N[C@@H](c1ccc(-c2ccc(S(C)(=O)=O)cc2)cc1)C(F)(F)F)C(=O)NC1(C#N)CC1 [ODANACATIB],100
,,,,,,,,,,,,,,,,,CCCN1CCN(c2ccc(C(=O)NC3(C(=O)NCC#N)CCCCC3)cc2)CC1 [BALICATIB],26.6
,,,,,,,,,,,,,,,,,COc1cccc2c3c([nH]c12)CCN(C(=O)[C@@H]1CCCC[C@H]1C(=O)NC1(C#N)CC1)C3,32
,11,,> 347,,2.4,20,649,> 10000,,,,,1300,,,,C[C@@H]1CN(c2ccccc2)CCN1C(=O)[C@@H]1CCCC[C@H]1C(=O)NC1(C#N)CC1,
0.62,17,,,,1.9,,2940,> 10000,4.1,0.49,1.4,,1750,,,,Cc1nnc(C)c2cc(N3CCN(C(=O)[C@@H]4CCCC[C@H]4C(=O)NC4(C#N)CC4)[C@H](C)C3)ccc12,
,45,,4.9,,,< 2,3510,> 10000,,,,,3750,,,,CC1(C)CN(c2ccc(S(C)(=O)=O)cc2)CCN1C(=O)[C@@H]1CCCC[C@H]1C(=O)NC1(C#N)CC1,
,6,,77,,1.6,7.1,399,> 10000,,> 0.5,,390,1050,,,,COc1ccc(N2CCN(C(=O)[C@@H]3CCCC[C@H]3C(=O)NCC#N)CC2)cc1,
0.072,3,13,33,39,3.5,9,1140,> 10000,2.8,0.081,57,200,1370,25,,1.6,COc1cc(N2CCN(C(=O)[C@@H]3CCCC[C@H]3C(=O)NC3(C#N)CC3)[C@H](C)C2)ccc1C1CC1,
,11,,< 5.3,,0.67,< 2,1180,> 10000,,> 0.5,,280,1290,,,,CS(=O)(=O)c1ccc(N2CCN(C(=O)[C@@H]3CCCC[C@H]3C(=O)NCC#N)CC2)cc1,

# Source: ChEMBL document CHEMBL2169826, “Pharmacokinetic benefits of 3,4-dimethoxy substitution of a phenyl ring and design of isosteres yielding orally available cathepsin K inhibitors” (J Med Chem, 2012)
